# Measurements taken from patent publication US8278105B2, “Induction, propagation and isolation of liver progenitor cells” (University of Southern California, priority 2008, dated 2012).
# Tested on: HES2 or HES3 cells
# Assay: 3i-induction of hepatocyte-like cells from human ES cells; dosages of medium components examined
# Assay type: cell-based
# Protocol: HES2 or 3 cells were cultured for 5 days on MEF-feeders with 20% FCS hES medium in organ culture dishes. […] Cells were detached as clumps by collagenase and feeder cells were removed by sedimentation in DMEM/F-12 medium.
# They were subsequently propagated using 3i or Kubota's medium following enzymatic dissection.
# HES2 or 3 cells were cultured 5 days on MEF-feeders with 20% FCS hES medium in organ culture dishes.
# Cells were detached as clumps by collagenase and feeder cells were removed by sedimentation in DMEM/F-12 medium.
structure (smiles),measurement,setting,value
c1cc(-c2cnn3cc(-c4ccc(OCCN5CCCCC5)cc4)cnc23)ccn1 [Dorsomorphin],toxicity to the culture,"Dorsomorphin 5 μM, in combination of PD0325901, CHIR99021 and Dorsomorphin",toxic
O=C(NOCC1CC1)c1ccc(F)c(F)c1Nc1ccc(I)cc1Cl [PD184352],effect on hepatic differentiation,"PD184352 0.4 μM, in combination of SU5402, PD184352 and CHIR99021",decreased hepatic differentiation and increased trophectodermal cells
same,effect on hepatic differentiation,"PD184352 0.8 μM, in combination of SU5402, PD184352 and CHIR99021",most efficient
same,effect on hepatic differentiation,"PD184352 1.6 μM, in combination of SU5402, PD184352 and CHIR99021",no difference from 0.8 μM
O=C(NOC[C@H](O)CO)c1ccc(F)c(F)c1Nc1ccc(I)cc1F [PD0325901],efficiency of hepatic differentiation compared with 3i,"PD0325901 0.4 μM, in combination of PD0325901 and CHIR99021",no difference from 3i
same,efficiency of hepatic differentiation compared with 3i,"PD0325901 0.8 μM, in combination of PD0325901 and CHIR99021",more efficient than 3i
same,efficiency of hepatic differentiation,"PD0325901 1.6 μM, in combination of PD0325901 and CHIR99021",no difference from 0.8 μM
"Cc1c[nH]c(/C=C2\C(=O)Nc3ccccc32)c1CCC(=O)O [SU5402, 3-[3-(2-Carboxyethyl)-4-methylpyrrol-2-methylidenyl]-2-indolinone]",effect on hepatic differentiation,"SU5402 1 μM, in combination of SU5402, PD184352 and CHIR99021",decreased hepatic differentiation and increased trophectodermal/neural cells
same,effect on hepatic differentiation,"SU5402 2 μM, in combination of SU5402, PD184352 and CHIR99021",most efficient
same,toxicity to the culture,"SU5402 4 μM, in combination of SU5402, PD184352 and CHIR99021",toxic
